# Measurements reported in patent US10215751B2, “Carboxy X rhodamine analogs” (PROMEGA CORPORATION, priority 2011, dated 2019).
# Biological target: T1, NanoLuc luciferase-PKC alpha fusion protein (Homo sapiens, UniProt P17252)
# T1 construct: expressed in transfected cells; host or cells: HEK293 cells, transient transfection with pF5 plasmid
# Assay: BRET negative control with cells expressing NanoLuc fused to an irrelevant kinase
# Assay type: cell-based
# Conditions: HEK293 cells expressing NanoLuc-PKCalpha (negative control)
# Procedure: HEK293 cells (20,000 cells per well in 96-well format) were transiently transfected (Fugene HD, Promega Corporation) with pF5 plasmid DNA (Promega Corporation) encoding a NanoLuc® luciferase-p38alpha kinase fusion protein. As a negative control, some cells were transfected with a pF5 plasmids DNA encoding a NanoLuc luciferase-PKC alpha fusion protein. On the second day post transfection, the cell medium was replaced with serum-free Opti-MEM (Life Technologies) with or without 50 ug/ml digitonin. […] A furimazine substrate (PBI 3939), a substrate for the NanoLuc luciferase, then was added to cells to a final concentration of 20 uM. BRET ratios were recorded using a Varioskan luminometer at the following wavelengths: 630 nm (acceptor)/450 nm (donor). Acceptor/donor values were used to determine BRET ratio (FIGS. 21 and 22).
structure (smiles),measurement,value
"Cc1ccc(-n2nc(C(C)(C)C)cc2NC(=O)Nc2ccc(OCCN3CCOCC3)c3ccccc23)cc1 [BIRB796, reference compound]",Effect of unlabeled BIRB796 on BRET signal with PBI 4838,not affected
